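Protocol summary: plate cells (96-well), add compound at 5 concentrations, incubate 48 h, interpolate endpoints linearly. GI50 is the concentration that inhibits growth by half. TGI denotes the concentration required for complete inhibition of growth.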
Experiments:
Assay in all cases: DTP human tumour cell line panel, 48 h; in the data active = GI50 below about 0.43 µM; inactive = the rest
786-0 renal = test system: 786-0 renal
A549 NSCLC = test system: A549 NSCLC
ACHN renal = test system: ACHN renal
BT-549 breast = test system: BT-549 breast
CAKI-1 renal = test system: CAKI-1 renal
CCRF-CEM leukemia = test system: CCRF-CEM leukemia
COLO 205 colon = test system: COLO 205 colon
DU-145 prostate = test system: DU-145 prostate
EKVX NSCLC = test system: EKVX NSCLC
HCC-2998 colon = test system: HCC-2998 colon
HCT-116 colon = test system: HCT-116 colon
HCT-15 colon = test system: HCT-15 colon
HL-60(TB) leukemia = test system: HL-60(TB) leukemia
HOP-62 NSCLC = test system: HOP-62 NSCLC
HS 578T breast = test system: HS 578T breast
HT29 colon = test system: HT29 colon
IGROV1 ovarian = test system: IGROV1 ovarian
K-562 leukemia = test system: K-562 leukemia
KM12 colon = test system: KM12 colon
LOX IMVI melanoma = test system: LOX IMVI melanoma
M14 melanoma = test system: M14 melanoma
MALME-3M melanoma = test system: MALME-3M melanoma
MCF7 breast = test system: MCF7 breast
MDA-MB-231 breast = test system: MDA-MB-231 breast
MDA-MB-435 = test system: MDA-MB-435
MDA-N = test system: MDA-N
MOLT-4 leukemia = test system: MOLT-4 leukemia
NCI-H226 lung = test system: NCI-H226 lung
NCI-H23 lung = test system: NCI-H23 lung
NCI-H460 lung = test system: NCI-H460 lung
NCI-H522 lung = test system: NCI-H522 lung
NCI/ADR-RES ovarian = test system: NCI/ADR-RES ovarian
OVCAR-3 ovarian = test system: OVCAR-3 ovarian
OVCAR-4 ovarian = test system: OVCAR-4 ovarian
OVCAR-5 ovarian = test system: OVCAR-5 ovarian
OVCAR-8 ovarian = test system: OVCAR-8 ovarian
PC-3 prostate = test system: PC-3 prostate
RPMI-8226 leukemia = test system: RPMI-8226 leukemia
RXF 393 renal = test system: RXF 393 renal
SF-268 CNS = test system: SF-268 CNS
SF-295 CNS = test system: SF-295 CNS
SF-539 CNS = test system: SF-539 CNS
SK-MEL-2 melanoma = test system: SK-MEL-2 melanoma
SK-MEL-28 melanoma = test system: SK-MEL-28 melanoma
SK-MEL-5 melanoma = test system: SK-MEL-5 melanoma
SK-OV-3 ovarian = test system: SK-OV-3 ovarian
SN12C renal = test system: SN12C renal
SNB-19 CNS = test system: SNB-19 CNS
SNB-75 CNS = test system: SNB-75 CNS
SW-620 colon = test system: SW-620 colon
T-47D breast = test system: T-47D breast
TK-10 renal = test system: TK-10 renal
U251 CNS = test system: U251 CNS
UACC-257 melanoma = test system: UACC-257 melanoma
UACC-62 melanoma = test system: UACC-62 melanoma
UO-31 renal = test system: UO-31 renal
SR leukemia = test system: SR leukemia
A498 renal = test system: A498 renal
HOP-92 NSCLC = test system: HOP-92 NSCLC

O=C1CCCC(=O)N1n1c(Cc2ccc(Cl)cc2)n[nH]c1=O
> 100 µM: TGI (786-0 renal) | TGI (A549 NSCLC) | TGI (ACHN renal) | TGI (BT-549 breast) | TGI (CAKI-1 renal) | TGI (CCRF-CEM leukemia) | TGI (COLO 205 colon) | TGI (DU-145 prostate) | TGI (EKVX NSCLC) | TGI (HCC-2998 colon) | TGI (HCT-116 colon) | TGI (HCT-15 colon) | TGI (HL-60(TB) leukemia) | TGI (HOP-62 NSCLC) | TGI (HS 578T breast) | TGI (HT29 colon) | TGI (IGROV1 ovarian) | TGI (K-562 leukemia) | TGI (KM12 colon) | TGI (LOX IMVI melanoma) | TGI (M14 melanoma) | TGI (MALME-3M melanoma) | TGI (MCF7 breast) | TGI (MDA-MB-231 breast) | TGI (MDA-MB-435) | TGI (MDA-N) | TGI (MOLT-4 leukemia) | TGI (NCI-H226 lung) | TGI (NCI-H23 lung) | TGI (NCI-H460 lung) | TGI (NCI-H522 lung) | TGI (NCI/ADR-RES ovarian) | TGI (OVCAR-3 ovarian) | TGI (OVCAR-4 ovarian) | TGI (OVCAR-5 ovarian) | TGI (OVCAR-8 ovarian) | TGI (PC-3 prostate) | TGI (RPMI-8226 leukemia) | TGI (RXF 393 renal) | TGI (SF-268 CNS) | TGI (SF-295 CNS) | TGI (SF-539 CNS) | TGI (SK-MEL-2 melanoma) | TGI (SK-MEL-28 melanoma) | TGI (SK-MEL-5 melanoma) | TGI (SK-OV-3 ovarian) | TGI (SN12C renal) | TGI (SNB-19 CNS) | TGI (SNB-75 CNS) | TGI (SW-620 colon) | TGI (T-47D breast) | TGI (TK-10 renal) | TGI (U251 CNS) | TGI (UACC-257 melanoma) | TGI (UACC-62 melanoma) | TGI (UO-31 renal)

O=C1CC(NCCCNC2CC(=O)c3c(Br)sc(Br)c32)c2c(Br)sc(Br)c21 (stereo not given)
4.96 µM: TGI (HT29 colon)
4.28 µM: TGI (MDA-MB-435)
4.21 µM: TGI (MALME-3M melanoma)
2.82 µM: TGI (U251 CNS)
12.6 µM: TGI (NCI-H226 lung)
3.7 µM: TGI (IGROV1 ovarian)
3.62 µM: TGI (RXF 393 renal)
14.3 µM: TGI (SF-295 CNS)
4.77 µM: TGI (SN12C renal)
5.64 µM: TGI (NCI/ADR-RES ovarian)
4.39 µM: TGI (M14 melanoma)
4.23 µM: TGI (BT-549 breast)
4.85 µM: TGI (OVCAR-5 ovarian)
3.77 µM: TGI (CAKI-1 renal)
6.04 µM: TGI (SK-MEL-5 melanoma)
1.21 µM: TGI (MOLT-4 leukemia)
3.86 µM: TGI (UACC-62 melanoma)
4.61 µM: TGI (TK-10 renal)
3.56 µM: TGI (HCT-15 colon)
4.36 µM: TGI (NCI-H23 lung)
> 100 µM: TGI (A549 NSCLC) | TGI (HL-60(TB) leukemia) | TGI (NCI-H460 lung) | TGI (RPMI-8226 leukemia) | TGI (SR leukemia) | TGI (SW-620 colon)
5.89 µM: TGI (COLO 205 colon)
14 µM: TGI (HOP-62 NSCLC)
7.68 µM: TGI (SNB-75 CNS)
8.56 µM: TGI (SF-539 CNS)
3.64 µM: TGI (DU-145 prostate)
6.75 µM: TGI (SNB-19 CNS)
> 44.6 µM: TGI (HS 578T breast)
> 24.3 µM: TGI (SK-MEL-28 melanoma)
2.41 µM: TGI (HCT-116 colon)
4.3 µM: TGI (MDA-MB-231 breast)
11.7 µM: TGI (SF-268 CNS)
3.9 µM: TGI (PC-3 prostate)
2.63 µM: TGI (786-0 renal)
5.54 µM: TGI (MDA-N)
3.55 µM: TGI (ACHN renal)
12.7 µM: TGI (OVCAR-4 ovarian)
5.28 µM: TGI (T-47D breast)
4.8 µM: TGI (EKVX NSCLC)
3.5 µM: TGI (KM12 colon)
5.01 µM: TGI (SK-MEL-2 melanoma)
> 35.8 µM: TGI (UACC-257 melanoma)
14.9 µM: TGI (SK-OV-3 ovarian)

O=C1NC(=O)/C(=C/c2ccc(S(=O)(=O)N/N=C/c3ccccc3)cc2)N1
> 100 µM: TGI (786-0 renal) | TGI (A498 renal) | TGI (A549 NSCLC) | TGI (ACHN renal) | TGI (BT-549 breast) | TGI (CAKI-1 renal) | TGI (CCRF-CEM leukemia) | TGI (COLO 205 colon) | TGI (DU-145 prostate) | TGI (EKVX NSCLC) | TGI (HCC-2998 colon) | TGI (HCT-116 colon) | TGI (HCT-15 colon) | TGI (HL-60(TB) leukemia) | TGI (HOP-62 NSCLC) | TGI (HOP-92 NSCLC) | TGI (HS 578T breast) | TGI (HT29 colon) | TGI (IGROV1 ovarian) | TGI (K-562 leukemia) | TGI (KM12 colon) | TGI (LOX IMVI melanoma) | TGI (M14 melanoma) | TGI (MALME-3M melanoma) | TGI (MCF7 breast) | TGI (MDA-MB-231 breast) | TGI (MDA-MB-435) | TGI (MDA-N) | TGI (MOLT-4 leukemia) | TGI (NCI-H226 lung) | TGI (NCI-H23 lung) | TGI (NCI/ADR-RES ovarian) | TGI (OVCAR-3 ovarian) | TGI (OVCAR-4 ovarian) | TGI (OVCAR-5 ovarian) | TGI (OVCAR-8 ovarian) | TGI (PC-3 prostate) | TGI (RPMI-8226 leukemia) | TGI (RXF 393 renal) | TGI (SF-268 CNS) | TGI (SF-295 CNS) | TGI (SK-MEL-2 melanoma) | TGI (SK-MEL-28 melanoma) | TGI (SK-MEL-5 melanoma) | TGI (SK-OV-3 ovarian) | TGI (SN12C renal) | TGI (SNB-19 CNS) | TGI (SNB-75 CNS) | TGI (SW-620 colon) | TGI (T-47D breast) | TGI (TK-10 renal) | TGI (U251 CNS) | TGI (UACC-257 melanoma) | TGI (UACC-62 melanoma) | TGI (UO-31 renal)

CC(C)(C)C(=O)CC(=O)C(F)(F)C(F)(F)C(F)(F)F.CC(C)(C)C(=O)CC(=O)C(F)(F)C(F)(F)C(F)(F)F.CC(C)(C)C(=O)CC(=O)C(F)(F)C(F)(F)C(F)(F)F.[Er]
> 100 µM: TGI (786-0 renal) | TGI (A498 renal) | TGI (A549 NSCLC) | TGI (ACHN renal) | TGI (BT-549 breast) | TGI (CAKI-1 renal) | TGI (CCRF-CEM leukemia) | TGI (COLO 205 colon) | TGI (DU-145 prostate) | TGI (HCC-2998 colon) | TGI (HCT-116 colon) | TGI (HL-60(TB) leukemia) | TGI (HOP-62 NSCLC) | TGI (HS 578T breast) | TGI (HT29 colon) | TGI (IGROV1 ovarian) | TGI (K-562 leukemia) | TGI (KM12 colon) | TGI (LOX IMVI melanoma) | TGI (M14 melanoma) | TGI (MALME-3M melanoma) | TGI (MCF7 breast) | TGI (MDA-MB-231 breast) | TGI (MDA-MB-435) | TGI (MDA-N) | TGI (NCI-H226 lung) | TGI (NCI-H23 lung) | TGI (NCI-H460 lung) | TGI (NCI-H522 lung) | TGI (OVCAR-3 ovarian) | TGI (OVCAR-4 ovarian) | TGI (OVCAR-5 ovarian) | TGI (OVCAR-8 ovarian) | TGI (PC-3 prostate) | TGI (RPMI-8226 leukemia) | TGI (SF-268 CNS) | TGI (SF-295 CNS) | TGI (SF-539 CNS) | TGI (SK-MEL-28 melanoma) | TGI (SK-OV-3 ovarian) | TGI (SN12C renal) | TGI (SNB-19 CNS) | TGI (SNB-75 CNS) | TGI (SR leukemia) | TGI (SW-620 colon) | TGI (T-47D breast) | TGI (TK-10 renal) | TGI (U251 CNS) | TGI (UACC-62 melanoma) | TGI (UO-31 renal)
inactive: GI50 (A498 renal) > 100 µM | GI50 (BT-549 breast) > 100 µM | GI50 (HCC-2998 colon) 43.5 µM | GI50 (MCF7 breast) > 100 µM | GI50 (NCI-H522 lung) 94 µM
96.8 µM: TGI (EKVX NSCLC)

— PubChem BioAssay (NCI)
